Data taken from patent US20260226011A1, “COMPOSITIONS AND METHODS FOR TREATING OCULAR DISEASES OR DISORDERS” (Translatum Medicus Inc., priority 2023, published 2026).

Experiments:
[1] = tested on: monocyte chemoattractant protein-1 (MCP-1); test: MCP-1 (ccl2) mRNA expression (qPCR) after LPS stimulation of PMA-differentiated THP-1 macrophages; format: cell-based, Human; conditions: 150 μM compound, LPS 100 ng/ml for 1 hour, qPCR delta delta Ct (FIG. 1)
Protocol: Human THP-1 monocytes were seeded at 5×10^5-9×10^5 in a 6-well plate. Phorbol myristate acetate (5 ng/ml, PMA) was added for 48-72 hours, to induce differentiation from monocytes to macrophages. Cells were then starved for 3 hours.
Cells were harvested in RNALater (Qiagen), and prepared for quantitative polymerase chain reaction (qPCR). Total RNA was isolated using Trizol Reagent (Life Technologies) based on the manufacturer's protocol and its quantity and quality checked with a Nanodrop 2000 spectrophotometer (Thermo Scientific, USA). QuantiTect Reverse Transcription Kit with separate genomic DNA removal step (Qiagen) was used based on the manufacturer's protocol. Briefly, 0.5 μg total RNA was used for each sample during reverse transcription and the resulting cDNA solution was further diluted to 10 ng/ul with nuclease free water and stored at-20 C.
PowerUp SYBR Green Master Mix (ThermoFisher Scientific) was used for quantitative PCR based on manufacturer's protocol. […]
Relative quantification method based on delta delta Ct was used for comparison of gene expression levels in various arms. Briefly, relative quantification and statistical analysis were performed using Relative Expression Software Tool-Multiple Condition Solver (REST-MCS, V2) based on the protocol by M. W. Pfaffl & G. W. Horgan (2006), which is incorporated by reference herein in its entirety.

[2] = Acid hydrolysis of bindarit conjugates in 12M HCl, read by NMR; format: physicochemical; conditions: for hydrolysis in 12M HCl: 12M HCl at 40° C., overnight; for conjugate hydrolized (acid hydrolysis): 12M HCl, 40° C., stirred 16 hours, NMR in D2O
Protocol: Acid hydrolysis: 4 mg bindarit-taurine conjugate was added to 4 mL 12M HCl. The reaction mixture was heated to 40° C. and stirred for 16 hours, followed by concentration of the reaction mixture. About 70% (mol %) of the bindarit-taurine conjugate was hydrolized as identified by NMR in D2O (FIG. 10).
3 mg bindarit-carnosine conjugate was added to 3 mL 12M HCl. The reaction mixture was heated to 40° C. and stirred for 16 hours, followed by concentration of the reaction mixture. About 50% (mol %) of the bindarit-carnosine conjugate was hydrolized as identified by NMR in D2O (FIG. 12).

| Compound | ability to reduce MCP-1 mRNA [1] | hydrolysis in 12M HCl [2] [%] | conjugate hydrolized (acid hydrolysis) [2] |
| --- | --- | --- | --- |
| CCOC(=O)C(C)(C)OCc1nn(Cc2ccccc2)c2ccccc12 [bindarit ethyl ester, ethyl 2-((1-benzl-1H-indazol-3-yl)methoxy)-2-methylpropanoate] | equally as efficacious as bindarit | – | – |
| CC(C)(OCc1nn(Cc2ccccc2)c2ccccc12)C(=O)NCCC(=O)N[C@@H](Cc1cnc[nH]1)C(=O)O [bindarit-carnosine conjugate] | – | 50 | About 50 % (mol %) |
| CC(C)(OCc1nn(Cc2ccccc2)c2ccccc12)C(=O)NCCS(=O)(=O)O [bindarit-taurine conjugate] | – | 70 | About 70 % (mol %) |
